Values joined by “and” are separate entries in the source; they are usually repeats but may differ in a detail not shown here. Equal values may be shown once. Inconclusive results and toxic doses are left out.
Tested on: L1210 leukemia ip in BDF1 mice, survival T/C
Assay: NCI In Vivo Anticancer Drug Screen. Data for tumor model L1210 Leukemia (intraperitoneal) in B6D2F1 (BDF1) mice
Conditions: higher = longer survival
In short: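 Value reflects the ratio of survival in compound-treated mice to survival in vehicle-treated controls, with both groups carrying the same transplanted tumor.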

SMILES: COc1cc2c(c(OC)c1OC)-c1ccc(OC)c(=O)cc1[C@@H](NC(C)=O)CC2
- T/C (endpoint: mean survival time, dose: 0.01 mg/kg/injection, schedule: Q01DX010 (ip), vehicle: saline): 96 % of control and 97 % of control
- T/C (endpoint: mean survival time, dose: 0.02 mg/kg/injection, schedule: Q01DX010 (ip), vehicle: saline): 93 % of control and 103 % of control
- T/C (endpoint: mean survival time, dose: 0.04 mg/kg/injection, schedule: Q01DX010 (ip), vehicle: saline): 102 % of control and 103 % of control
- T/C (endpoint: mean survival time, dose: 0.06 mg/kg/injection, schedule: Q01DX015 (ip), vehicle: saline): 98 % of control
- T/C (endpoint: mean survival time, dose: 0.08 mg/kg/injection, schedule: Q01DX010 (ip), vehicle: saline): 102 % of control and 115 % of control
- T/C (endpoint: mean survival time, dose: 0.09 mg/kg/injection, schedule: Q01DX015 (ip), vehicle: saline): 100 % of control
- T/C (endpoint: mean survival time, dose: 0.09 mg/kg/injection, schedule: Q02DX008 (ip), vehicle: saline): 97 % of control
- T/C (endpoint: mean survival time, dose: 0.1 mg/kg/injection, schedule: Q## X032 (ip), vehicle: saline): 98 % of control
- T/C (endpoint: mean survival time, dose: 0.13 mg/kg/injection, schedule: Q01DX009 (ip), vehicle: saline): 110 % of control
- T/C (endpoint: mean survival time, dose: 0.13 mg/kg/injection, schedule: Q01DX015 (ip), vehicle: saline): 104 % of control
- T/C (endpoint: mean survival time, dose: 0.13 mg/kg/injection, schedule: Q02DX008 (ip), vehicle: saline): 97 % of control
- T/C (endpoint: mean survival time, dose: 0.16 mg/kg/injection, schedule: Q## X032 (ip), vehicle: saline): 97 % of control
- T/C (endpoint: mean survival time, dose: 0.2 mg/kg/injection, schedule: Q01DX015 (ip), vehicle: saline): 113 % of control
- T/C (endpoint: mean survival time, dose: 0.2 mg/kg/injection, schedule: Q02DX008 (ip), vehicle: saline): 103 % of control
- T/C (endpoint: mean survival time, dose: 0.24 mg/kg/injection, schedule: Q## X032 (ip), vehicle: saline): 100 % of control
- T/C (endpoint: mean survival time, dose: 0.25 mg/kg/injection, schedule: Q01DX005 (oral), vehicle: saline): 102 % of control
- T/C (endpoint: mean survival time, dose: 0.25 mg/kg/injection, schedule: Q01DX009 (ip), vehicle: saline): 113 % of control
- T/C (endpoint: mean survival time, dose: 0.25 mg/kg/injection, schedule: Q04DX003 (ip), vehicle: saline): 121 % of control
- T/C (endpoint: mean survival time, dose: 0.3 mg/kg/injection, schedule: Q01DX015 (ip), vehicle: saline): 117 % of control
- T/C (endpoint: mean survival time, dose: 0.3 mg/kg/injection, schedule: Q02DX008 (ip), vehicle: saline): 106 % of control
- T/C (endpoint: mean survival time, dose: 0.36 mg/kg/injection, schedule: Q## X032 (ip), vehicle: saline): 102 % of control
- T/C (endpoint: mean survival time, dose: 0.45 mg/kg/injection, schedule: Q02DX008 (ip), vehicle: saline): 120 % of control
- T/C (endpoint: mean survival time, dose: 0.5 mg/kg/injection, schedule: Q01DX001 (iv), vehicle: saline): 93 % of control
- T/C (endpoint: mean survival time, dose: 0.5 mg/kg/injection, schedule: Q01DX005 (oral), vehicle: saline): 101 % of control
- T/C (endpoint: mean survival time, dose: 0.5 mg/kg/injection, schedule: Q01DX009 (ip), vehicle: saline): 108 % of control
- T/C (endpoint: mean survival time, dose: 0.5 mg/kg/injection, schedule: Q04DX003 (ip), vehicle: saline): 116 % of control
- T/C (endpoint: mean survival time, dose: 0.5 mg/kg/injection, schedule: Q## X032 (ip), vehicle: saline): 105 % of control
- T/C (endpoint: mean survival time, dose: 0.54 mg/kg/injection, schedule: Q04DX004 (ip), vehicle: saline): 112 % of control
- T/C (endpoint: mean survival time, dose: 0.54 mg/kg/injection, schedule: Q## X032 (ip), vehicle: saline): 105 % of control
- T/C (endpoint: mean survival time, dose: 0.6 mg/kg/injection, schedule: Q## X004 (ip), vehicle: saline): 112 % of control
- T/C (endpoint: mean survival time, dose: 0.8 mg/kg/injection, schedule: Q04DX004 (ip), vehicle: saline): 114 % of control
- T/C (endpoint: mean survival time, dose: 0.8 mg/kg/injection, schedule: Q## X032 (ip), vehicle: saline): 114 % of control
- T/C (endpoint: mean survival time, dose: 0.9 mg/kg/injection, schedule: Q## X004 (ip), vehicle: saline): 114 % of control
- T/C (endpoint: mean survival time, dose: 1.0 mg/kg/injection, schedule: Q01DX001 (iv), vehicle: saline): 97 % of control
- T/C (endpoint: mean survival time, dose: 1.0 mg/kg/injection, schedule: Q01DX005 (oral), vehicle: saline): 100 % of control
- T/C (endpoint: mean survival time, dose: 1.0 mg/kg/injection, schedule: Q01DX009 (ip), vehicle: saline): 122 % of control
- T/C (endpoint: mean survival time, dose: 1.0 mg/kg/injection, schedule: Q04DX003 (ip), vehicle: saline): 104 % of control
- T/C (endpoint: mean survival time, dose: 1.2 mg/kg/injection, schedule: Q04DX004 (ip), vehicle: saline): 116 % of control
- T/C (endpoint: mean survival time, dose: 1.25 mg/kg/injection, schedule: Q01DX001 (ip), vehicle: saline): 101 % of control and 114 % of control and 123 % of control
- T/C (endpoint: mean survival time, dose: 1.3 mg/kg/injection, schedule: Q## X004 (ip), vehicle: saline): 121 % of control
- T/C (endpoint: mean survival time, dose: 1.6 mg/kg/injection, schedule: Q## X032 (ip), vehicle: saline): 124 % of control
- T/C (endpoint: mean survival time, dose: 2.0 mg/kg/injection, schedule: Q01DX001 (iv), vehicle: saline): 107 % of control
- T/C (endpoint: mean survival time, dose: 2.0 mg/kg/injection, schedule: Q01DX001 (oral), vehicle: saline): 91 % of control
- T/C (endpoint: mean survival time, dose: 2.0 mg/kg/injection, schedule: Q01DX005 (oral), vehicle: saline): 92 % of control
- T/C (endpoint: mean survival time, dose: 2.0 mg/kg/injection, schedule: Q## X004 (ip), vehicle: saline): 156 % of control
- T/C (endpoint: mean survival time, dose: 2.5 mg/kg/injection, schedule: Q01DX001 (ip), vehicle: saline): 118 % of control and 124 % of control
- T/C (endpoint: mean survival time, dose: 3.6 mg/kg/injection, schedule: Q## X032 (ip), vehicle: saline): 102 % of control
- T/C (endpoint: mean survival time, dose: 4.0 mg/kg/injection, schedule: Q01DX001 (iv), vehicle: saline): 97 % of control
- T/C (endpoint: mean survival time, dose: 4.0 mg/kg/injection, schedule: Q01DX001 (oral), vehicle: saline): 100 % of control
- T/C (endpoint: mean survival time, dose: 4.0 mg/kg/injection, schedule: Q08DX002 (ip), vehicle: saline): 108 % of control
- T/C (endpoint: mean survival time, dose: 5.0 mg/kg/injection, schedule: Q01DX001 (ip), vehicle: saline): 94 % of control and 118 % of control
- T/C (endpoint: mean survival time, dose: 8.0 mg/kg/injection, schedule: Q01DX001 (oral), vehicle: saline): 92 % of control
- T/C (endpoint: mean survival time, dose: 31.2 micrograms/kg/injection, schedule: Q03HX024 (ip), vehicle: saline): 97 % of control
- T/C (endpoint: mean survival time, dose: 62.5 micrograms/kg/injection, schedule: Q01DX005 (iv), vehicle: saline): 100 % of control
- T/C (endpoint: mean survival time, dose: 62.5 micrograms/kg/injection, schedule: Q01DX009 (ip), vehicle: saline): 101 % of control
- T/C (endpoint: mean survival time, dose: 62.5 micrograms/kg/injection, schedule: Q03HX016 (ip), vehicle: saline): 102 % of control
- T/C (endpoint: mean survival time, dose: 62.5 micrograms/kg/injection, schedule: Q03HX024 (ip), vehicle: saline): 104 % of control
- T/C (endpoint: mean survival time, dose: 125.0 micrograms/kg/injection, schedule: Q01DX005 (iv), vehicle: saline): 98 % of control
- T/C (endpoint: mean survival time, dose: 125.0 micrograms/kg/injection, schedule: Q01DX009 (ip), vehicle: saline): 115 % of control
- T/C (endpoint: mean survival time, dose: 125.0 micrograms/kg/injection, schedule: Q03HX008 (ip), vehicle: saline): 123 % of control
- T/C (endpoint: mean survival time, dose: 125.0 micrograms/kg/injection, schedule: Q03HX016 (ip), vehicle: saline): 107 % of control
- T/C (endpoint: mean survival time, dose: 125.0 micrograms/kg/injection, schedule: Q03HX024 (ip), vehicle: saline): 109 % of control
- T/C (endpoint: mean survival time, dose: 250.0 micrograms/kg/injection, schedule: Q01DX005 (iv), vehicle: saline): 98 % of control
- T/C (endpoint: mean survival time, dose: 250.0 micrograms/kg/injection, schedule: Q03HX016 (ip), vehicle: saline): 121 % of control
- T/C (endpoint: mean survival time, dose: 250.0 micrograms/kg/injection, schedule: Q03HX024 (ip), vehicle: saline): 96 % of control
- T/C (endpoint: mean survival time, dose: 500.0 micrograms/kg/injection, schedule: Q01DX005 (iv), vehicle: saline): 100 % of control
- T/C (endpoint: mean survival time, dose: 1000.0 micrograms/kg/injection, schedule: Q01DX005 (iv), vehicle: saline): 107 % of control
- T/C (endpoint: mean survival time, dose: 1000.0 micrograms/kg/injection, schedule: Q01DX009 (ip), vehicle: saline): 87 % of control
- T/C (endpoint: median survival time, dose: 0.02 mg/kg/injection, schedule: Q01DX009 (ip), vehicle: saline): 93 % of control and 100 % of control
- T/C (endpoint: median survival time, dose: 0.04 mg/kg/injection, schedule: Q01DX009 (ip), vehicle: saline): 100 % of control
- T/C (endpoint: median survival time, dose: 0.08 mg/kg/injection, schedule: Q01DX009 (ip), vehicle: saline): 106 % of control and 111 % of control
- T/C (endpoint: median survival time, dose: 0.16 mg/kg/injection, schedule: Q01DX009 (ip), vehicle: saline): 112 % of control

SMILES: [O-]c1n[n+](C2CCCCC2)no1
- T/C (endpoint: mean survival time, dose: 5.0 mg/kg/injection, schedule: Q01DX001 (ip), vehicle: other): 106 % of control
- T/C (endpoint: mean survival time, dose: 10.0 mg/kg/injection, schedule: Q01DX001 (ip), vehicle: other): 101 % of control

SMILES: CCC(CO)NCc1cc(=O)[nH]c(=O)[nH]1 (stereo not given)
- T/C (endpoint: mean survival time, dose: 100.0 mg/kg/injection, schedule: Q04DX003 (ip), vehicle: saline): 96 % of control
- T/C (endpoint: mean survival time, dose: 200.0 mg/kg/injection, schedule: Q04DX003 (ip), vehicle: saline): 96 % of control
- T/C (endpoint: mean survival time, dose: 400.0 mg/kg/injection, schedule: Q04DX003 (ip), vehicle: saline): 102 % of control

SMILES: Cc1ccc(CSC(=N)N)cc1C
- T/C (endpoint: mean survival time, dose: 25.0 mg/kg/injection, schedule: Q04DX002 (ip), vehicle: Klucel (hydroxypropylcellulose) (HPC)): 98 % of control
- T/C (endpoint: mean survival time, dose: 50.0 mg/kg/injection, schedule: Q04DX002 (ip), vehicle: Klucel (hydroxypropylcellulose) (HPC)): 103 % of control
- T/C (endpoint: mean survival time, dose: 100.0 mg/kg/injection, schedule: Q04DX002 (ip), vehicle: Klucel (hydroxypropylcellulose) (HPC)): 101 % of control
